Values joined by “and” are separate entries in the source; they are usually repeats but may differ in a detail not shown here. Equal values may be shown once. Inconclusive results and toxic doses are left out. How the source made its calls: active means survival T/C of 150% or more; inactive means T/C below 125% in these data. Non-standard residues stand in square brackets, D forms with d. Residues, ends and D or L forms follow the SMILES beside them. ξ: configuration not given here. *: point of attachment. ξL = CC(C)CC(N)C(=O)O; ClAc = O=C(CCl)*
Tested on: CD2F1 mice, L1210 leukemia ip, survival T/C
Experiment: NCI In Vivo Anticancer Drug Screen. Data for tumor model L1210 Leukemia (intraperitoneal) in CD2F1 (CDF1) mice
Settings: higher = longer survival
In short: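 Mice carrying a transplanted tumor received test compound or vehicle alone. The value is the measurement in the treated group divided by that in the vehicle-treated control group.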

[1] = endpoint: mean survival time, dose: 100.0 mg/kg/injection, schedule: Q04DX003 (ip), vehicle: saline sonified
[2] = endpoint: mean survival time, dose: 100.0 mg/kg/injection, schedule: Q01DX001 (ip), vehicle: saline with Tween-80
[3] = endpoint: mean survival time, dose: 200.0 mg/kg/injection, schedule: Q01DX001 (ip), vehicle: saline with Tween-80
[4] = endpoint: mean survival time, dose: 400.0 mg/kg/injection, schedule: Q01DX001 (ip), vehicle: saline with Tween-80
[5] = endpoint: mean survival time, dose: 150.0 mg/kg/injection, schedule: Q01DX001 (ip), vehicle: other
[6] = endpoint: mean survival time, dose: 300.0 mg/kg/injection, schedule: Q01DX001 (ip), vehicle: other
[7] = endpoint: mean survival time, dose: 50.0 mg/kg/injection, schedule: Q01DX009 (ip), vehicle: Klucel (hydroxypropylcellulose) (HPC)
[8] = endpoint: mean survival time, dose: 100.0 mg/kg/injection, schedule: Q01DX009 (ip), vehicle: Klucel (hydroxypropylcellulose) (HPC)
[9] = endpoint: mean survival time, dose: 200.0 mg/kg/injection, schedule: Q01DX009 (ip), vehicle: Klucel (hydroxypropylcellulose) (HPC)
[10] = endpoint: mean survival time, dose: 100.0 mg/kg/injection, schedule: Q01DX009 (ip), vehicle: saline with Tween-80
[11] = endpoint: mean survival time, dose: 200.0 mg/kg/injection, schedule: Q01DX009 (ip), vehicle: saline with Tween-80
[12] = endpoint: mean survival time, dose: 400.0 mg/kg/injection, schedule: Q01DX009 (ip), vehicle: saline with Tween-80
[13] = endpoint: mean survival time, dose: 100.0 mg/kg/injection, schedule: Q04DX003 (ip), vehicle: saline with Tween-80
[14] = endpoint: mean survival time, dose: 200.0 mg/kg/injection, schedule: Q04DX003 (ip), vehicle: saline with Tween-80
[15] = endpoint: mean survival time, dose: 400.0 mg/kg/injection, schedule: Q04DX003 (ip), vehicle: saline with Tween-80
[16] = endpoint: mean survival time, dose: 25.0 mg/kg/injection, schedule: Q01DX009 (ip), vehicle: saline with Tween-80
[17] = endpoint: mean survival time, dose: 50.0 mg/kg/injection, schedule: Q01DX009 (ip), vehicle: saline with Tween-80

Measured: T/C

NCCSC(C[N+](=O)[O-])c1ccccc1Cl (stereo unspecified)
inactive: endpoint: median survival time, dose: 6.25 mg/kg/injection, schedule: Q01DX009 (ip), vehicle: saline 102 % of control | endpoint: median survival time, dose: 12.5 mg/kg/injection, schedule: Q01DX009 (ip), vehicle: saline 107 % of control | endpoint: median survival time, dose: 25.0 mg/kg/injection, schedule: Q01DX009 (ip), vehicle: saline 112 % of control | endpoint: median survival time, dose: 50.0 mg/kg/injection, schedule: Q01DX009 (ip), vehicle: saline 123 % of control | endpoint: median survival time, dose: 100.0 mg/kg/injection, schedule: Q01DX009 (ip), vehicle: saline 123 % of control

N#CC/C(=N\Nc1ccc([N+](=O)[O-])cc1[N+](=O)[O-])c1ccccc1
inactive: [1] 100 % of control | endpoint: mean survival time, dose: 200.0 mg/kg/injection, schedule: Q04DX003 (ip), vehicle: saline sonified 100 % of control | endpoint: mean survival time, dose: 400.0 mg/kg/injection, schedule: Q04DX003 (ip), vehicle: saline sonified 97 % of control

CC(C)(C)OC(=O)Cc1ccccc1
inactive: [2] 91 % of control | [3] 97 % of control | [4] 94 % of control

CCN(CCP(c1ccccc1)c1ccccc1)CCP(c1ccccc1)c1ccccc1
inactive: [5] 110 % of control | [6] 115 % of control

COc1cc(/C=N/n2c(-c3ccccc3)nc3ccccc3c2=O)cc(Br)c1O
inactive: [7] 91 % of control | [8] 105 % of control | [9] 102 % of control

CCOC(=O)/C(C(C)=N)=C(\C)O
inactive: [2] 100 % of control | [10] 101 % of control | [3] 98 % of control | [11] 104 % of control | [4] 105 % of control

Cc1ccc(S(=O)(=O)OCC2OC(n3cnc4c(NC=O)ncnc43)C(OC=O)C2OC=O)cc1 (stereo unspecified)
inactive: endpoint: mean survival time, dose: 25.0 mg/kg/injection, schedule: Q01DX009 (ip), vehicle: saline 104 % of control | endpoint: mean survival time, dose: 50.0 mg/kg/injection, schedule: Q01DX009 (ip), vehicle: saline 102 % of control | endpoint: mean survival time, dose: 100.0 mg/kg/injection, schedule: Q01DX009 (ip), vehicle: saline 98 % of control

CCOC(=O)Nc1cccc(Cl)c1F
inactive: [10] 91 % of control | [11] 97 % of control | [12] 96 % of control

Nc1nc([Se]c2nc(N)nc3c2ncn3C2OC(CO)C(O)C2O)c2ncn(C3OC(CO)C(O)C3O)c2n1 (stereo unspecified)
active: endpoint: median survival time, dose: 36.0 mg/kg/injection, schedule: Q01DX005 (ip), vehicle: distilled water + Tween-80 156 % of control | endpoint: median survival time, dose: 60.0 mg/kg/injection, schedule: Q01DX005 (ip), vehicle: distilled water + Tween-80 162 % of control

Cc1ccc(C2CC(c3ccccc3)=NN2C)cc1 (stereo unspecified)
inactive: endpoint: mean survival time, dose: 75.0 mg/kg/injection, schedule: Q01DX001 (ip), vehicle: other 96 % of control | [5] 90 % of control | [6] 93 % of control

CC(=O)OC1CCC2(C)C(=CC=C3C2CCC2(C)C3CC3OC4(CCC(C)CO4)C(C)C32)C1 (stereo unspecified)
inactive: [7] 92 % of control | [8] 97 % of control | [9] 94 % of control

CC(C)(C)CC(C)(C)c1ccc(O)c(Cl)c1
inactive: [13] 96 % of control | [14] 100 % of control | [15] 106 % of control

[Co].[NH-]CC[NH-].[NH-]CC[NH-].[NH-]CC[NH-]
inactive: [16] 93 % of control | [17] 101 % of control | [10] 110 % of control | [1] 104 % of control

O=C1/C(=N/Nc2ccccc2)c2cccc3cccc1c23
inactive: [2] 97 % of control | [3] 100 % of control | [4] 106 % of control

CCCCCCCCCOc1ccc(Cl)cc1
inactive: endpoint: mean survival time, dose: 25.0 mg/kg/injection, schedule: Q04DX002 (ip), vehicle: saline with Tween-80 95 % of control | endpoint: mean survival time, dose: 50.0 mg/kg/injection, schedule: Q04DX002 (ip), vehicle: saline with Tween-80 100 % of control | endpoint: mean survival time, dose: 100.0 mg/kg/injection, schedule: Q04DX002 (ip), vehicle: saline with Tween-80 90 % of control and 95 % of control | endpoint: mean survival time, dose: 400.0 mg/kg/injection, schedule: Q04DX002 (ip), vehicle: saline with Tween-80 93 % of control

CCOC(=O)C(=NN)C(=O)OCC
inactive: [2] 97 % of control | [10] 96 % of control | [3] 105 % of control | [11] 101 % of control | [4] 102 % of control | [12] 93 % of control

CC(=O)Cc1ccc(C)cc1
inactive: [13] 97 % of control | [14] 93 % of control | [15] 104 % of control

C[C@]12CC[C@H]3[C@@H](CCC4=C[C@@H](OC5OCC(OC6OC(CO)C(O)C(O)C6O)C(O)C5O)CC[C@@]43C=O)[C@@]1(O)CCC2C1=CC(=O)OC1 (stereo partly specified)
inactive: endpoint: mean survival time, dose: 0.16 mg/kg/injection, schedule: Q01DX009 (ip), vehicle: Klucel (hydroxypropylcellulose) (HPC) 101 % of control | endpoint: mean survival time, dose: 0.31 mg/kg/injection, schedule: Q01DX009 (ip), vehicle: Klucel (hydroxypropylcellulose) (HPC) 101 % of control | endpoint: mean survival time, dose: 0.62 mg/kg/injection, schedule: Q01DX009 (ip), vehicle: Klucel (hydroxypropylcellulose) (HPC) 98 % of control | endpoint: mean survival time, dose: 0.63 mg/kg/injection, schedule: Q01DX009 (ip), vehicle: Klucel (hydroxypropylcellulose) (HPC) 102 % of control | endpoint: mean survival time, dose: 1.25 mg/kg/injection, schedule: Q01DX009 (ip), vehicle: Klucel (hydroxypropylcellulose) (HPC) 98 % of control and 107 % of control | endpoint: mean survival time, dose: 2.5 mg/kg/injection, schedule: Q01DX009 (ip), vehicle: Klucel (hydroxypropylcellulose) (HPC) 93 % of control and 95 % of control | endpoint: mean survival time, dose: 5.0 mg/kg/injection, schedule: Q01DX009 (ip), vehicle: Klucel (hydroxypropylcellulose) (HPC) 102 % of control | endpoint: mean survival time, dose: 10.0 mg/kg/injection, schedule: Q01DX009 (ip), vehicle: Klucel (hydroxypropylcellulose) (HPC) 108 % of control | endpoint: mean survival time, dose: 20.0 mg/kg/injection, schedule: Q01DX009 (ip), vehicle: Klucel (hydroxypropylcellulose) (HPC) 113 % of control | endpoint: mean survival time, dose: 156.0 micrograms/kg/injection, schedule: Q01DX009 (ip), vehicle: Klucel (hydroxypropylcellulose) (HPC) 104 % of control | endpoint: mean survival time, dose: 312.0 micrograms/kg/injection, schedule: Q01DX009 (ip), vehicle: Klucel (hydroxypropylcellulose) (HPC) 110 % of control | endpoint: mean survival time, dose: 625.0 micrograms/kg/injection, schedule: Q01DX009 (ip), vehicle: Klucel (hydroxypropylcellulose) (HPC) 100 % of control | endpoint: mean survival time, dose: 1250.0 micrograms/kg/injection, schedule: Q01DX009 (ip), vehicle: Klucel (hydroxypropylcellulose) (HPC) 92 % of control | endpoint: mean survival time, dose: 2500.0 micrograms/kg/injection, schedule: Q01DX009 (ip), vehicle: Klucel (hydroxypropylcellulose) (HPC) 101 % of control | endpoint: mean survival time, dose: 5000.0 micrograms/kg/injection, schedule: Q01DX009 (ip), vehicle: Klucel (hydroxypropylcellulose) (HPC) 101 % of control

CC(=O)SC(Cc1ccccc1)(Cc1ccccc1)SC(C)=O
inactive: [13] 97 % of control | [14] 95 % of control | [15] 100 % of control

C=C(C)C1Cc2c(ccc3c2OC2COc4cc(OC)c(OC)cc4C2C3=O)O1 (stereo unspecified)
inactive: [10] 92 % of control | [13] 103 % of control | [11] 93 % of control | [14] 101 % of control | [12] 94 % of control | [15] 97 % of control

CCOC(=O)CC(=O)C(F)(F)F
inactive: endpoint: mean survival time, dose: 75.0 mg/kg/injection, schedule: Q01DX001 (ip), vehicle: saline 95 % of control | endpoint: mean survival time, dose: 150.0 mg/kg/injection, schedule: Q01DX001 (ip), vehicle: saline 97 % of control | endpoint: mean survival time, dose: 300.0 mg/kg/injection, schedule: Q01DX001 (ip), vehicle: saline 101 % of control

O=C(O)C(=O)O
inactive: endpoint: mean survival time, dose: 200.0 mg/kg/injection, schedule: Q01DX001 (ip), vehicle: saline 92 % of control | endpoint: mean survival time, dose: 400.0 mg/kg/injection, schedule: Q01DX001 (ip), vehicle: saline 97 % of control

O=C(O)C(Cc1ccc(O)cc1)c1ccccc1 (stereo unspecified)
inactive: [10] 103 % of control | [11] 101 % of control | [12] 95 % of control

CC(C)CC(NC(=O)CCl)C(=O)NCC(=O)O (stereo unspecified) (ClAc-[ξL]-Gly-OH)
inactive: [16] 96 % of control | [17] 96 % of control | [10] 94 % of control

NC(C(=O)O)C(O)C(=O)O (stereo unspecified)
inactive: endpoint: mean survival time, dose: 37.5 mg/kg/injection, schedule: Q01DX009 (ip), vehicle: saline 101 % of control | endpoint: mean survival time, dose: 75.0 mg/kg/injection, schedule: Q01DX009 (ip), vehicle: saline 97 % of control | endpoint: mean survival time, dose: 150.0 mg/kg/injection, schedule: Q01DX009 (ip), vehicle: saline 98 % of control

Source: PubChem BioAssay AID256 (DTP/NCI, 2004)
